Data reported in patent US20020086895A1, “Methods of treating fungal infections” (priority 1985, published 2002).

Columns and labels:
C. albicans = assay: Antifungal screen of matrix-synthesis aurones in 96-well plates, C. albicans; format: cell-based, Candida albicans
Protocol: (§1) Thirty-eight 96-well plates were prepared with the above samples and tested against both C. albicans and A. fumigatus at either 8 μg/ml or 12.5 μg/ml. Plates with high activity were retested at the same concentration to confirm activity.
(§2) These compounds have formulae where W′ is OH, V is 3′,4′-(1,1-dimethylpropyloxy) to form a dihydropyran series, and X is selected from 3,4-dimethoxyphenyl, 4-t-butylphenyl, 2(prop-2-enyloxy)phenyl, 3-phenoxyphenyl, 3-ethoxy-4-hydroxyphenyl, 6-cyclohexenyl, and norborn-4-yl.

A. fumigatus = assay: Antifungal screen of matrix-synthesis aurones in 96-well plates, A. fumigatus; format: cell-based, Aspergillus fumigatus
Protocol: as §1, §2

C=CCOc1ccccc1C=C1Oc2cc(O)c(CC=C(C)C)c(O)c2C1=O
CA percent inhibition (C. albicans; @12.5 μg/ml): 59% | AF percent inhibition (A. fumigatus; @12.5 μg/ml): 40%

CC(C)=CCc1c(O)cc2c(c1O)C(=O)C(=Cc1ccc(Oc3ccccc3)cc1)O2
AF percent inhibition (A. fumigatus; @12.5 μg/ml): CA 0% AF 0% @12.5 μg/ml

CC(C)=CCc1c(O)cc2c(c1O)C(=O)C(=Cc1cccc(O)c1O)O2
CA percent inhibition (C. albicans; @12.5 μg/ml): 94% | AF percent inhibition (A. fumigatus; @12.5 μg/ml): 31%

CC(C)=CCc1c(O)cc2c(c1O)C(=O)C(=Cc1ccc(O)c(O)c1O)O2
CA percent inhibition (C. albicans; @12.5 μg/ml): 89% | AF percent inhibition (A. fumigatus; @12.5 μg/ml): 0%

C=CCOc1ccccc1C=C1Oc2cc(O)cc(O)c2C1=O
CA percent inhibition (C. albicans; @12.5 μg/ml): 0% | AF percent inhibition (A. fumigatus; @12.5 μg/ml): 43%

O=C1C(=Cc2ccc(O)c(O)c2)Oc2cc(O)cc(O)c21
CA percent inhibition (C. albicans; @12.5 μg/ml): 95% | AF percent inhibition (A. fumigatus; @12.5 μg/ml): 36%

O=C1C(=Cc2ccc(Oc3ccccc3)cc2)Oc2cc(O)cc(O)c21
CA percent inhibition (C. albicans; @12.5 μg/ml): 57% | AF percent inhibition (A. fumigatus; @12.5 μg/ml): 48%

O=C1C(=Cc2cccc(O)c2O)Oc2cc(O)cc(O)c21
CA percent inhibition (C. albicans; @12.5 μg/ml): 79% | AF percent inhibition (A. fumigatus; @12.5 μg/ml): 27%

O=C1C(=Cc2ccc(O)c(O)c2O)Oc2cc(O)cc(O)c21
CA percent inhibition (C. albicans; @12.5 μg/ml): 94% | AF percent inhibition (A. fumigatus; @12.5 μg/ml): 44%

C=CCOc1ccccc1C=C1Oc2cc3c(c(O)c2C1=O)CCC(C)(C)O3
CA percent inhibition (C. albicans; @8 μg/ml): 67% | AF percent inhibition (A. fumigatus; @8 μg/ml): 94%

CC1(C)CCc2c(cc3c(c2O)C(=O)C(=Cc2ccc(O)c(O)c2)O3)O1
CA percent inhibition (C. albicans; @8 μg/ml): 87% | AF percent inhibition (A. fumigatus; @8 μg/ml): 0%

CC1(C)CCc2c(cc3c(c2O)C(=O)C(=Cc2ccc(Oc4ccccc4)cc2)O3)O1
CA percent inhibition (C. albicans; @8 μg/ml): 80% | AF percent inhibition (A. fumigatus; @8 μg/ml): 76%

CC1(C)CCc2c(cc3c(c2O)C(=O)C(=Cc2cccc(O)c2O)O3)O1
CA percent inhibition (C. albicans; @8 μg/ml): 96% | AF percent inhibition (A. fumigatus; @8 μg/ml): 52%

CC1(C)CCc2c(cc3c(c2O)C(=O)C(=Cc2ccc(O)c(O)c2O)O3)O1
CA percent inhibition (C. albicans; @8 μg/ml): 0% | AF percent inhibition (A. fumigatus; @8 μg/ml): 69%

C=CCOc1ccccc1C=C1Oc2cc(O)c(CC=C)c(O)c2C1=O
CA percent inhibition (C. albicans; @8 μg/ml): 53% | AF percent inhibition (A. fumigatus; @8 μg/ml): 96%

C=CCc1c(O)cc2c(c1O)C(=O)C(=Cc1ccc(O)c(O)c1)O2
CA percent inhibition (C. albicans; @8 μg/ml): CA 0% AF 0% @8 μg/ml | AF percent inhibition (A. fumigatus; @8 μg/ml): CA 0% AF 0% @8 μg/ml

C=CCc1c(O)cc2c(c1O)C(=O)C(=Cc1ccc(Oc3ccccc3)cc1)O2
CA percent inhibition (C. albicans; @8 μg/ml): 52% | AF percent inhibition (A. fumigatus; @8 μg/ml): 68%

C=CCc1c(O)cc2c(c1O)C(=O)C(=Cc1cccc(O)c1O)O2
CA percent inhibition (C. albicans; @8 μg/ml): 45% | AF percent inhibition (A. fumigatus; @8 μg/ml): 0%

C=CCc1c(O)cc2c(c1O)C(=O)C(=Cc1ccc(O)c(O)c1O)O2
CA percent inhibition (C. albicans; @8 μg/ml): 69% | AF percent inhibition (A. fumigatus; @8 μg/ml): 35%

CC(C)=CCc1c(O)cc2c(c1O)C(=O)C(=Cc1cc(C(C)(C)C)c(O)c(C(C)(C)C)c1)O2
CA percent inhibition (C. albicans; @12.5 μg/ml): 47% | AF percent inhibition (A. fumigatus; @12.5 μg/ml): 48%

CC(C)=CCc1c(O)cc2c(c1O)C(=O)C(=Cc1ccc(F)cc1F)O2
CA percent inhibition (C. albicans; @12.5 μg/ml): 0% | AF percent inhibition (A. fumigatus; @12.5 μg/ml): 40%

CCOc1ccc(C=C2Oc3cc(O)c(CC=C(C)C)c(O)c3C2=O)cc1OC
CA percent inhibition (C. albicans; @12.5 μg/ml): 25% | AF percent inhibition (A. fumigatus; @12.5 μg/ml): 49%

CCOc1ccccc1C=C1Oc2cc(O)c(CC=C(C)C)c(O)c2C1=O
CA percent inhibition (C. albicans; @12.5 μg/ml): 25% | AF percent inhibition (A. fumigatus; @12.5 μg/ml): 51%

COc1ccccc1C=C1Oc2cc(O)c(CC=C(C)C)c(O)c2C1=O
CA percent inhibition (C. albicans; @12.5 μg/ml): 15% | AF percent inhibition (A. fumigatus; @12.5 μg/ml): 39%

CC(C)(C)c1cc(C=C2Oc3cc(O)cc(O)c3C2=O)cc(C(C)(C)C)c1O
CA percent inhibition (C. albicans; @12.5 μg/ml): 17% | AF percent inhibition (A. fumigatus; @12.5 μg/ml): 35%

O=C1C(=Cc2ccc(F)cc2F)Oc2cc(O)cc(O)c21
CA percent inhibition (C. albicans; @12.5 μg/ml): 0% | AF percent inhibition (A. fumigatus; @12.5 μg/ml): 43%

CCOc1ccc(C=C2Oc3cc(O)cc(O)c3C2=O)cc1OC
AF percent inhibition (A. fumigatus; @12.5 μg/ml): CA 0% AF 0% @12.5 μg/ml

CCOc1ccccc1C=C1Oc2cc(O)cc(O)c2C1=O
AF percent inhibition (A. fumigatus; @12.5 μg/ml): CA 0% AF 0% @12.5 μg/ml

COc1ccccc1C=C1Oc2cc(O)cc(O)c2C1=O
AF percent inhibition (A. fumigatus; @12.5 μg/ml): CA 0% AF 0% @12.5 μg/ml

CC1(C)CCc2c(cc3c(c2O)C(=O)C(=Cc2cc(C(C)(C)C)c(O)c(C(C)(C)C)c2)O3)O1
CA percent inhibition (C. albicans; @8 μg/ml): 69% | AF percent inhibition (A. fumigatus; @8 μg/ml): 68%

CC1(C)CCc2c(cc3c(c2O)C(=O)C(=Cc2ccc(F)cc2F)O3)O1
CA percent inhibition (C. albicans; @8 μg/ml): 0% | AF percent inhibition (A. fumigatus; @8 μg/ml): 94%

CCOc1ccc(C=C2Oc3cc4c(c(O)c3C2=O)CCC(C)(C)O4)cc1OC
CA percent inhibition (C. albicans; @8 μg/ml): 58% | AF percent inhibition (A. fumigatus; @8 μg/ml): 67%

CCOc1ccccc1C=C1Oc2cc3c(c(O)c2C1=O)CCC(C)(C)O3
CA percent inhibition (C. albicans; @8 μg/ml): 80% | AF percent inhibition (A. fumigatus; @8 μg/ml): 71%

COc1ccccc1C=C1Oc2cc3c(c(O)c2C1=O)CCC(C)(C)O3
CA percent inhibition (C. albicans; @8 μg/ml): 76% | AF percent inhibition (A. fumigatus; @8 μg/ml): 70%

C=CCc1c(O)cc2c(c1O)C(=O)C(=Cc1cc(C(C)(C)C)c(O)c(C(C)(C)C)c1)O2
CA percent inhibition (C. albicans; @8 μg/ml): 49% | AF percent inhibition (A. fumigatus; @8 μg/ml): 60%

C=CCc1c(O)cc2c(c1O)C(=O)C(=Cc1ccc(F)cc1F)O2
CA percent inhibition (C. albicans; @8 μg/ml): 53% | AF percent inhibition (A. fumigatus; @8 μg/ml): 96%

C=CCc1c(O)cc2c(c1O)C(=O)C(=Cc1ccc(OCC)c(OC)c1)O2
CA percent inhibition (C. albicans; @8 μg/ml): 65% | AF percent inhibition (A. fumigatus; @8 μg/ml): 69%

C=CCc1c(O)cc2c(c1O)C(=O)C(=Cc1ccccc1OCC)O2
CA percent inhibition (C. albicans; @8 μg/ml): 22% | AF percent inhibition (A. fumigatus; @8 μg/ml): 52%

C=CCc1c(O)cc2c(c1O)C(=O)C(=Cc1ccccc1OC)O2
CA percent inhibition (C. albicans; @8 μg/ml): 20% | AF percent inhibition (A. fumigatus; @8 μg/ml): 62%

CC(C)=CCc1c(O)cc2c(c1O)C(=O)C(=Cc1c(C)cccc1C)O2
CA percent inhibition (C. albicans; @12.5 μg/ml): 7% | AF percent inhibition (A. fumigatus; @12.5 μg/ml): 0%

CC(C)=CCc1c(O)cc2c(c1O)C(=O)C(=Cc1ccccc1C)O2
CA percent inhibition (C. albicans; @12.5 μg/ml): 11% | AF percent inhibition (A. fumigatus; @12.5 μg/ml): 0%

CC(C)=CCc1c(O)cc2c(c1O)C(=O)C(=Cc1ccc(C)cc1)O2
CA percent inhibition (C. albicans; @12.5 μg/ml): CA 18% AF 18% @12.5 μg/ml | AF percent inhibition (A. fumigatus; @12.5 μg/ml): CA 18% AF 18% @12.5 μg/ml

CCc1ccc(C=C2Oc3cc(O)c(CC=C(C)C)c(O)c3C2=O)cc1
CA percent inhibition (C. albicans; @12.5 μg/ml): 31% | AF percent inhibition (A. fumigatus; @12.5 μg/ml): 41%

CC(C)=CCc1c(O)cc2c(c1O)C(=O)C(=Cc1c(C)cc(C)cc1C)O2
CA percent inhibition (C. albicans; @12.5 μg/ml): 51% | AF percent inhibition (A. fumigatus; @12.5 μg/ml): 53%

CC(C)=CCc1c(O)cc2c(c1O)C(=O)C(=Cc1cc(C)cc(C)c1)O2
CA percent inhibition (C. albicans; @12.5 μg/ml): CA 26% AF | AF percent inhibition (A. fumigatus; @12.5 μg/ml): #13% @12.5 μg/ml

Cc1cccc(C)c1C=C1Oc2cc(O)cc(O)c2C1=O
AF percent inhibition (A. fumigatus; @12.5 μg/ml): CA 0% AF 0% @12.5 μg/ml

Cc1ccccc1C=C1Oc2cc(O)cc(O)c2C1=O
AF percent inhibition (A. fumigatus; @12.5 μg/ml): CA 0% AF 0% @12.5 μg/ml

Cc1ccc(C=C2Oc3cc(O)cc(O)c3C2=O)cc1
AF percent inhibition (A. fumigatus; @12.5 μg/ml): CA 0% AF 0% @12.5 μg/ml

CCc1ccc(C=C2Oc3cc(O)cc(O)c3C2=O)cc1
AF percent inhibition (A. fumigatus; @12.5 μg/ml): CA 0% AF 0% @12.5 μg/ml

Cc1cccc(C)c1C=C1Oc2cc3c(c(O)c2C1=O)CCC(C)(C)O3
CA percent inhibition (C. albicans; @8 μg/ml): 82% | AF percent inhibition (A. fumigatus; @8 μg/ml): 97%

Cc1ccccc1C=C1Oc2cc3c(c(O)c2C1=O)CCC(C)(C)O3
CA percent inhibition (C. albicans; @8 μg/ml): 13% | AF percent inhibition (A. fumigatus; @8 μg/ml): 34%

Cc1ccc(C=C2Oc3cc4c(c(O)c3C2=O)CCC(C)(C)O4)cc1
CA percent inhibition (C. albicans; @8 μg/ml): 58% | AF percent inhibition (A. fumigatus; @8 μg/ml): 93%

CCc1ccc(C=C2Oc3cc4c(c(O)c3C2=O)CCC(C)(C)O4)cc1
CA percent inhibition (C. albicans; @8 μg/ml): 73% | AF percent inhibition (A. fumigatus; @8 μg/ml): 68%

Cc1cc(C)c(C=C2Oc3cc4c(c(O)c3C2=O)CCC(C)(C)O4)c(C)c1
CA percent inhibition (C. albicans; @8 μg/ml): 0% | AF percent inhibition (A. fumigatus; @8 μg/ml): 28%

Cc1cc(C)cc(C=C2Oc3cc4c(c(O)c3C2=O)CCC(C)(C)O4)c1
CA percent inhibition (C. albicans; @8 μg/ml): CA 0% AF | AF percent inhibition (A. fumigatus; @8 μg/ml): #11% @8 μg/ml

C=CCc1c(O)cc2c(c1O)C(=O)C(=Cc1c(C)cccc1C)O2
CA percent inhibition (C. albicans; @8 μg/ml): 7% | AF percent inhibition (A. fumigatus; @8 μg/ml): 49%

C=CCc1c(O)cc2c(c1O)C(=O)C(=Cc1ccccc1C)O2
CA percent inhibition (C. albicans; @8 μg/ml): 4% | AF percent inhibition (A. fumigatus; @8 μg/ml): 11%

C=CCc1c(O)cc2c(c1O)C(=O)C(=Cc1ccc(C)cc1)O2
CA percent inhibition (C. albicans; @8 μg/ml): 10% | AF percent inhibition (A. fumigatus; @8 μg/ml): 47%

C=CCc1c(O)cc2c(c1O)C(=O)C(=Cc1ccc(CC)cc1)O2
CA percent inhibition (C. albicans; @8 μg/ml): 16% | AF percent inhibition (A. fumigatus; @8 μg/ml): 47%

C=CCc1c(O)cc2c(c1O)C(=O)C(=Cc1c(C)cc(C)cc1C)O2
CA percent inhibition (C. albicans; @8 μg/ml): 16% | AF percent inhibition (A. fumigatus; @8 μg/ml): 7%

C=CCc1c(O)cc2c(c1O)C(=O)C(=Cc1cc(C)cc(C)c1)O2
CA percent inhibition (C. albicans; @8 μg/ml): CA 42% AF | AF percent inhibition (A. fumigatus; @8 μg/ml): #81% @8 μg/ml
